In patent US11925608B2 (YS PHARMTECH, priority 2017, dated 2024):
Where two headings read alike, the source gives them in different places.

Assays:
[1] = aqueous solution, cited from earlier work
[2] = Stability of epinephrine formulations after 1 month storage at 50° C. (HPLC potency, degradants, pH, appearance, O.D.); type: physicochemical
Experimental: Selected samples were also tested for drug chirality. The potency and chirality of drug were analyzed using HPLC methods. The degree of coloration was visually inspected and analytically measured their optical densities using a UV/VIS spectrophotometer at the maximum absorption wavelength (λmax) at 485 nm.

[3] = 1:10 cysteine-to-drug complex and commercial formulation
[4] = non-complex, acetylcysteine levels
[5] = non-complex, mixed antioxidants
[6] = non-complex, thioglycerol levels
[7] = pediatric formulations (1:2000)

Row | Compound | association constant (K) of the inclusion complex with SBEβCD ([1]; pH 3.5) | association constant (K) of the inclusion complex with SBEβCD ([1]; pH 5.5) | Appearance ([2]; 1:1 cysteine-to-drug) | O.D. (Absorbance at λmax = 485 nm) ([2]; 1:1 cysteine-to-drug) | Appearance [2, 3] | O.D. (Absorbance at λmax = 485 nm) [2, 3] | Appearance ([2]; 2:1 cysteine-to-drug) | O.D. (Absorbance at λmax = 485 nm) ([2]; 2:1 cysteine-to-drug) | Appearance ([2]; 5:1 cysteine-to-drug) | O.D. (Absorbance at λmax = 485 nm) ([2]; 5:1 cysteine-to-drug) | Appearance [2, 4] | O.D. (Absorbance at λmax = 485 nm) [2, 4] | Appearance ([2]; non-complex, cysteine levels) | O.D. (Absorbance at λmax = 485 nm) ([2]; non-complex, cysteine levels) | Appearance [2, 5] | O.D. (Absorbance at λmax = 485 nm) [2, 5] | Appearance [2, 6] | O.D. (Absorbance at λmax = 485 nm) [2, 6] | Appearance [2, 7] | O.D. (Absorbance at λmax = 485 nm) [2, 7]
1 | CNCC(O)c1ccc(O)c(O)c1 (single isomer, unassigned; (-)) [epinephrine, (−)-3,4-Dihydroxy-α-[(methylamino)methyl]benzyl alcohol] | 488 M⁻¹ | 111 M⁻¹ | – | – | – | – | – | – | – | – | – | – | – | – | – | – | – | – | – | –
2 | II [0.0005N Iodine] | – | – | Slightly brownish | 0.1206 | Slightly brownish | 0.1354 | Slightly brownish | 0.1206 | Slightly brownish | 0.1290 | Slightly brownish | 0.1354 | Slightly brownish | 0.1354 | Slightly brownish | 0.1354 | Slightly brownish | 0.1354 | Slightly brownish | 0.1354
